The values below are quoted from earlier work in US20170128401A1, “DIETARY COMPOSITION FOR IMPROVED PERFORMANCE” (priority 2015, published 2017).

Data set [1] relates to healthy adults. The note with it: in vivo.
Data set [2] deals with healthy adults. The note with it: in vivo. This is another data set of the same source.
The test system of another data set is subjects. The note with it: 400 mg of phosphatidylserine.
The conditions of data set [3]: 750 mg dose; 85% VO2 max.

Turning to `O=C(O[C@@H]1Cc2c(O)cc(O)cc2O[C@@H]1c1cc(O)c(O)c(O)c1)c1cc(O)c(O)c(O)c1` [EGCG, epigallocatechin gallate], in the data set with healthy adults [1], the VO2max result is reported as “increased”. Also, in the data set with healthy adults [2], the carbohydrate absorption result was “significantly decreased”.
phosphatidylserine: in the data set with subjects, the “decrease in wrong answers (test accuracy)” value is on record as 39%, the “increase in correct answers (test accuracy)” value is reported as 13% and the “increase speed of calculations” value was 20%. For the same compound, in data set [3], the “increase time to exhaustion in anaerobic events” value is given as 29%+/−8.
